Reference: article PMC5218480 (PLoS ONE, 2017)

Test system: MV-4-11 cells
Assay: Gene expression microarray analysis (Affymetrix PrimeView) and GSEA
Assay type: cell-based, human
Set-up: RFU PODN (11730768_x_at) / Fold change /veh PODN (11730768_x_at) / RFU LINC00158 (11744669_a_at) / Fold change /veh LINC00158 (11744669_a_at) / RFU DUSP10 (11751237_a_at) / Fold change /veh DUSP10 (11751237_a_at) / RFU ID3 (11757404_x_at) / Fold change /veh ID3 (11757404_x_at) / RFU PLEKHG5 (11737974_s_at) / Fold change /veh PLEKHG5 (11737974_s_at) / RFU LRRC4B (11730491_at) / Fold change /veh LRRC4B (11730491_at) / RFU GIMAP4 (11747438_a_at) / Fold change /veh GIMAP4 (11747438_a_at) / RFU KRT8 (11758183_x_at) / Fold change /veh KRT8 (11758183_x_at) / RFU CNN1 (11734310_a_at) / Fold change /veh CNN1 (11734310_a_at) / RFU VPS37D (11726825_at) / Fold change /veh VPS37D (11726825_at) / RFU C10orf10 (11716522_x_at) / Fold change /veh C10orf10 (11716522_x_at) / RFU KIR2DL2 /// KIR2DL4 /// KIR2DL5A /// KIR2DL5B /// KIR2DS1 /// KIR2DS2 /// KIR2DS3 /// KIR2DS4 /// KIR3DL3 /// KIR3DL3 /// KIR3DS1 (11738374_at) / Fold change /veh KIR2DL2 /// KIR2DL4 /// KIR2DL5A /// KIR2DL5B /// KIR2DS1 /// KIR2DS2 /// KIR2DS3 /// KIR2DS4 /// KIR3DL3 /// KIR3DL3 /// KIR3DS1 (11738374_at) / RFU C1QL1 (11718748_at) / Fold change /veh C1QL1 (11718748_at) / RFU TMPRSS4 (11747572_a_at) / Fold change /veh TMPRSS4 (11747572_a_at) / RFU HAMP (11756126_x_at) / Fold change /veh HAMP (11756126_x_at) / RFU RNFT2 (11725882_a_at) / Fold change /veh RNFT2 (11725882_a_at) / RFU NR4A2 (11747474_a_at) / Fold change /veh NR4A2 (11747474_a_at) / RFU ABCC12 (11746883_a_at) / Fold change /veh ABCC12 (11746883_a_at) / RFU TMEM136 (11760407_x_at) / Fold change /veh TMEM136 (11760407_x_at) / RFU CLDN22 /// WWC2 (11732394_at) / Fold change /veh CLDN22 /// WWC2 (11732394_at) / RFU HLA-DPB1 (11760878_x_at) / Fold change /veh HLA-DPB1 (11760878_x_at) / RFU SPINT1 (11716480_a_at) / Fold change /veh SPINT1 (11716480_a_at) / RFU GAP43 (11754022_s_at) / Fold change /veh GAP43 (11754022_s_at) / RFU A4GNT (11735810_at) / Fold change /veh A4GNT (11735810_at) / RFU PRB3 (11715151_x_at) / Fold change /veh PRB3 (11715151_x_at) / RFU TUBB4B (11761932_at) / Fold change /veh TUBB4B (11761932_at) / RFU CAPN14 (11732068_a_at) / Fold change /veh CAPN14 (11732068_a_at) / RFU TMCC2 (11721928_a_at) / Fold change /veh TMCC2 (11721928_a_at) / RFU IRGQ (11745062_a_at) / Fold change /veh IRGQ (11745062_a_at) / RFU FAM174B (11720279_a_at) / Fold change /veh FAM174B (11720279_a_at) / RFU TMPRSS4 (11748680_a_at) / Fold change /veh TMPRSS4 (11748680_a_at) / RFU FAM212B (11763350_a_at) / Fold change /veh FAM212B (11763350_a_at) / RFU PLEKHG5 (11743358_a_at) / Fold change /veh PLEKHG5 (11743358_a_at) / RFU ZSCAN30 (11745921_a_at) / Fold change /veh ZSCAN30 (11745921_a_at) / RFU CMKLR1 (11741424_a_at) / Fold change /veh CMKLR1 (11741424_a_at) / RFU LOC101060620 /// MAPK8IP1 (11723275_at) / Fold change /veh LOC101060620 /// MAPK8IP1 (11723275_at) / RFU SPTSSB (11747773_x_at) / Fold change /veh SPTSSB (11747773_x_at) / RFU PRSS12 (11739890_at) / Fold change /veh PRSS12 (11739890_at) / RFU BIN1 (11741810_x_at) / Fold change /veh BIN1 (11741810_x_at) / RFU WNT11 (11732464_a_at) / Fold change /veh WNT11 (11732464_a_at) / RFU C10orf10 (11716521_a_at) / Fold change /veh C10orf10 (11716521_a_at) / RFU C5orf56 (11738089_at) / Fold change /veh C5orf56 (11738089_at) / RFU CYB561 (11721691_x_at) / Fold change /veh CYB561 (11721691_x_at) / RFU ANKRD19P (11752326_a_at) / Fold change /veh ANKRD19P (11752326_a_at) / RFU OR2T12 /// OR2T33 /// OR2T8 (11738714_s_at) / Fold change /veh OR2T12 /// OR2T33 /// OR2T8 (11738714_s_at) / RFU VCAN (11748164_a_at) / Fold change /veh VCAN (11748164_a_at) / RFU JSRP1 (11732532_at) / Fold change /veh JSRP1 (11732532_at) / RFU KRTAP10-11 (11738290_x_at) / Fold change /veh KRTAP10-11 (11738290_x_at) / RFU MYO3A (11730013_a_at) / Fold change /veh MYO3A (11730013_a_at) / RFU EBF3 (11725865_a_at) / Fold change /veh EBF3 (11725865_a_at) / RFU CAMK2N1 (11719241_x_at) / Fold change /veh CAMK2N1 (11719241_x_at) / RFU C5orf56 (11738088_a_at) / Fold change /veh C5orf56 (11738088_a_at) / RFU OLFML3 (11715873_a_at) / Fold change /veh OLFML3 (11715873_a_at) / RFU LOC100653217 /// NTM (11731650_a_at) / Fold change /veh LOC100653217 /// NTM (11731650_a_at) / RFU MAPK11 (11762145_a_at) / Fold change /veh MAPK11 (11762145_a_at) / RFU FIZ1 (11724087_x_at) / Fold change /veh FIZ1 (11724087_x_at) / RFU OASL (11726364_x_at) / Fold change /veh OASL (11726364_x_at) / RFU SOX15 (11748057_x_at) / Fold change /veh SOX15 (11748057_x_at) / RFU CD79A (11719716_a_at) / Fold change /veh CD79A (11719716_a_at) / RFU HIST1H1D (11736915_at) / Fold change /veh HIST1H1D (11736915_at) / RFU CASKIN2 (11723855_a_at) / Fold change /veh CASKIN2 (11723855_a_at) / RFU LOC730098 (11760151_x_at) / Fold change /veh LOC730098 (11760151_x_at) / RFU OR4N2 (11742367_at) / Fold change /veh OR4N2 (11742367_at) / RFU PRRT2 (11749266_a_at) / Fold change /veh PRRT2 (11749266_a_at) / RFU SNX32 (11753110_a_at) / Fold change /veh SNX32 (11753110_a_at) / RFU CDHR5 (11726645_a_at) / Fold change /veh CDHR5 (11726645_a_at) / RFU RCAN1 (11760418_a_at) / Fold change /veh RCAN1 (11760418_a_at) / RFU FAM167A (11723789_a_at) / Fold change /veh FAM167A (11723789_a_at) / RFU FAM26E (11764081_at) / Fold change /veh FAM26E (11764081_at) / RFU ISYNA1 (11749810_s_at) / Fold change /veh ISYNA1 (11749810_s_at) / RFU ACY1 (11761880_at) / Fold change /veh ACY1 (11761880_at) / RFU 11764098_at / Fold change /veh 11764098_at / RFU SAMD14 (11745864_x_at) / Fold change /veh SAMD14 (11745864_x_at) / RFU NPB (11741838_a_at) / Fold change /veh NPB (11741838_a_at) / RFU TMPRSS6 (11731388_a_at) / Fold change /veh TMPRSS6 (11731388_a_at) / RFU KRTAP10-2 (11738614_at) / Fold change /veh KRTAP10-2 (11738614_at) / RFU ARHGAP8 /// PRR5-ARHGAP8 (11727945_x_at) / Fold change /veh ARHGAP8 /// PRR5-ARHGAP8 (11727945_x_at) / RFU KRTAP5-7 /// NADSYN1 (11734609_at) / Fold change /veh KRTAP5-7 /// NADSYN1 (11734609_at) / RFU RASL12 (11751679_a_at) / Fold change /veh RASL12 (11751679_a_at) / RFU CDKN2B (11736163_a_at) / Fold change /veh CDKN2B (11736163_a_at) / RFU PRF1 (11729649_at) / Fold change /veh PRF1 (11729649_at) / RFU, ZNF638 /// ZNF638-IT1 / Fold change vs veh, ZNF638 /// ZNF638-IT1 / RFU, PANK3 / Fold change vs veh, PANK3 / RFU, SH3YL1 / Fold change vs veh, SH3YL1 / RFU, ZEB2 / Fold change vs veh, ZEB2 / RFU, NRIP1 / Fold change vs veh, NRIP1 / RFU, PTTG1IP / Fold change vs veh, PTTG1IP / RFU, CAPN2 / Fold change vs veh, CAPN2 / RFU, MED14 / Fold change vs veh, MED14 / RFU, SNORA58 / Fold change vs veh, SNORA58 / RFU, C1orf63 / Fold change vs veh, C1orf63 / RFU, LRRFIP1 / Fold change vs veh, LRRFIP1 / RFU, NDUFAF7 / Fold change vs veh, NDUFAF7 / RFU, SLC12A2 / Fold change vs veh, SLC12A2 / RFU, IBTK / Fold change vs veh, IBTK / RFU, ESF1 / Fold change vs veh, ESF1 / Fold change vs veh, TMEM50B / RFU, TAOK1 / Fold change vs veh, TAOK1 / RFU, ACBD3 / Fold change vs veh, ACBD3 / RFU, TMA16 / Fold change vs veh, TMA16 / RFU, RWDD3 / Fold change vs veh, RWDD3 / RFU, BCAT1 / Fold change vs veh, BCAT1 / RFU, EDEM3 / Fold change vs veh, EDEM3 / RFU, TMEM33 / Fold change vs veh, TMEM33 / RFU, WDR75 / Fold change vs veh, WDR75 / RFU, AHCTF1 / Fold change vs veh, AHCTF1 / RFU, TFRC / Fold change vs veh, TFRC / RFU, ZDHHC17 / Fold change vs veh, ZDHHC17 / RFU, NOM1 / Fold change vs veh, NOM1 / RFU, ARL8B / Fold change vs veh, ARL8B / RFU, ZBTB11 / Fold change vs veh, ZBTB11 / RFU, TAMM41 / Fold change vs veh, TAMM41 / RFU, KIAA1704 /// LOC100996395 / Fold change vs veh, KIAA1704 /// LOC100996395 / RFU, ING1 / Fold change vs veh, ING1 / RFU, TRMT61B / Fold change vs veh, TRMT61B / RFU, FUBP3 / Fold change vs veh, FUBP3 / RFU, TP53 / Fold change vs veh, TP53 / RFU, TNKS2 / Fold change vs veh, TNKS2 / RFU, ZFP14 / Fold change vs veh, ZFP14 / RFU, ACTR2 / Fold change vs veh, ACTR2 / RFU, PPP3R1 / Fold change vs veh, PPP3R1 / RFU, PIK3R1 / Fold change vs veh, PIK3R1 / RFU, HNRNPA1 / Fold change vs veh, HNRNPA1 / RFU, RNF170 / Fold change vs veh, RNF170 / RFU, ZNF28 / Fold change vs veh, ZNF28 / RFU, RNGTT / Fold change vs veh, RNGTT / RFU, OGT / Fold change vs veh, OGT / RFU, BRD1 / Fold change vs veh, BRD1 / RFU, MARS / Fold change vs veh, MARS / RFU, ZNF655 / Fold change vs veh, ZNF655 / RFU, FAHD1 / Fold change vs veh, FAHD1 / RFU, BDP1 / Fold change vs veh, BDP1 / RFU, LRRCC1 / Fold change vs veh, LRRCC1 / RFU, ARID1A / Fold change vs veh, ARID1A / RFU, ZNF146 / Fold change vs veh, ZNF146 / RFU, ZNF330 / Fold change vs veh, ZNF330 / RFU, GPN3 / Fold change vs veh, GPN3 / RFU, C9orf123 / Fold change vs veh, C9orf123 / RFU, N4BP2L2 / Fold change vs veh, N4BP2L2 / RFU, ARFIP1 / Fold change vs veh, ARFIP1 / RFU, FAM179B / Fold change vs veh, FAM179B / RFU, BCL10 / Fold change vs veh, BCL10 / RFU, UHRF1BP1L / Fold change vs veh, UHRF1BP1L / RFU, BET1 / Fold change vs veh, BET1 / RFU, CNOT2 / Fold change vs veh, CNOT2 / RFU, ZNF268 / Fold change vs veh, ZNF268 / Fold change vs veh, ZNF507 / RFU, DGCR2 / Fold change vs veh, DGCR2 / RFU, WDSUB1 / Fold change vs veh, WDSUB1 / Fold change vs veh, HSP90B1 /// MIR3652 / RFU, ADSS / Fold change vs veh, ADSS / RFU, GK / Fold change vs veh, GK / RFU, ZNF148 / Fold change vs veh, ZNF148 / RFU, TAF9 / Fold change vs veh, TAF9 / RFU, SLC1A5 / Fold change vs veh, SLC1A5 / RFU, SLMO2 / Fold change vs veh, SLMO2 / RFU, ABCC4 / Fold change vs veh, ABCC4 / RFU, LOC101060439 /// RAP1B / Fold change vs veh, LOC101060439 /// RAP1B / RFU, RFX7 / Fold change vs veh, RFX7 / RFU, GTPBP10 / Fold change vs veh, GTPBP10 / RFU, CNEP1R1 / Fold change vs veh, CNEP1R1 / RFU, BIVM-ERCC5 /// ERCC5 / Fold change vs veh, BIVM-ERCC5 /// ERCC5 / RFU, ILF3 / Fold change vs veh, ILF3 / RFU 11762660_at / Fold change /veh 11762660_at / RFU VCAN (11757783_s_at) / Fold change /veh VCAN (11757783_s_at) / RFU DDX43 (11728927_at) / Fold change /veh DDX43 (11728927_at) / RFU KRT8 (11758188_x_at) / Fold change /veh KRT8 (11758188_x_at) / RFU NKD1 (11759106_at) / Fold change /veh NKD1 (11759106_at) / RFU SRD5A1 (11742802_a_at) / Fold change /veh SRD5A1 (11742802_a_at) / RFU TPSAB1 /// TPSB2 (11721975_s_at) / Fold change /veh TPSAB1 /// TPSB2 (11721975_s_at) / RFU GSTM3 (11746129_a_at) / Fold change /veh GSTM3 (11746129_a_at) / RFU IL23R (11737362_x_at) / Fold change /veh IL23R (11737362_x_at) / RFU TMEM51 (11727254_a_at) / Fold change /veh TMEM51 (11727254_a_at) / RFU PIWIL2 (11732686_x_at) / Fold change /veh PIWIL2 (11732686_x_at) / RFU ORM1 (11744905_x_at) / Fold change /veh ORM1 (11744905_x_at) / RFU CCDC152 (11743942_at) / Fold change /veh CCDC152 (11743942_at) / RFU ECM1 (11717891_a_at) / Fold change /veh ECM1 (11717891_a_at) / RFU IL23R (11748794_a_at) / Fold change /veh IL23R (11748794_a_at) / RFU TNFAIP8L3 (11732012_x_at) / Fold change /veh TNFAIP8L3 (11732012_x_at) / RFU MBOAT4 (11741988_at) / Fold change /veh MBOAT4 (11741988_at) / RFU 11764193_at / Fold change /veh 11764193_at / RFU TMEM53 (11763286_at) / Fold change /veh TMEM53 (11763286_at) / RFU MAGEB2 (11727129_at) / Fold change /veh MAGEB2 (11727129_at) / RFU TMEM200A (11744735_a_at) / Fold change /veh TMEM200A (11744735_a_at) / RFU CCDC152 (11751479_a_at) / Fold change /veh CCDC152 (11751479_a_at) / RFU FAM211A (11726209_a_at) / Fold change /veh FAM211A (11726209_a_at) / RFU RGS16 (11746705_a_at) / Fold change /veh RGS16 (11746705_a_at) / RFU VCAN (11755009_s_at) / Fold change /veh VCAN (11755009_s_at) / RFU RHOB (11743442_s_at) / Fold change /veh RHOB (11743442_s_at) / RFU RGS16 (11720943_a_at) / Fold change /veh RGS16 (11720943_a_at) / RFU RGS16 (11720944_at) / Fold change /veh RGS16 (11720944_at) / RFU, VPS4B / Fold change vs veh, VPS4B / RFU, CREB1 / Fold change vs veh, CREB1 / RFU, DNAJC13 / Fold change vs veh, DNAJC13 / RFU, GNAQ / Fold change vs veh, GNAQ / RFU, CDK5R1 / Fold change vs veh, CDK5R1 / RFU, ZRANB3 / Fold change vs veh, ZRANB3 / RFU, CUL4A / Fold change vs veh, CUL4A / RFU, CCNY / Fold change vs veh, CCNY / RFU, UFL1 / Fold change vs veh, UFL1 / RFU, COG3 / Fold change vs veh, COG3 / RFU, DIAPH2 / Fold change vs veh, DIAPH2 / RFU, SKA2 / Fold change vs veh, SKA2 / RFU, AFF3 / Fold change vs veh, AFF3 / RFU, LMF1 / Fold change vs veh, LMF1 / RFU, IPO11 / Fold change vs veh, IPO11 / RFU, DFFB / Fold change vs veh, DFFB / RFU, FOXP1 / Fold change vs veh, FOXP1 / RFU, CARD8 / Fold change vs veh, CARD8 / RFU, STRN3 / Fold change vs veh, STRN3 / RFU, ADK / Fold change vs veh, ADK / RFU, RASSF2 / Fold change vs veh, RASSF2 / RFU, WIPF1 / Fold change vs veh, WIPF1 / RFU, LARP1B / Fold change vs veh, LARP1B / RFU, RASA1 / Fold change vs veh, RASA1 / RFU, RB1 / Fold change vs veh, RB1 / RFU, PPFIA1 / Fold change vs veh, PPFIA1 / RFU, MAT2A / Fold change vs veh, MAT2A / RFU, CCT5 / Fold change vs veh, CCT5 / RFU, WDR92 / Fold change vs veh, WDR92 / RFU, CUX1 / Fold change vs veh, CUX1 / RFU, TTC7A / Fold change vs veh, TTC7A / RFU, TMEM135 / Fold change vs veh, TMEM135 / RFU, DEPTOR / Fold change vs veh, DEPTOR / RFU, CPM / Fold change vs veh, CPM / RFU, DNAJB6 / Fold change vs veh, DNAJB6 / RFU, CACNA2D3 / Fold change vs veh, CACNA2D3 / RFU, DTX4 / Fold change vs veh, DTX4 / RFU, TFCP2 / Fold change vs veh, TFCP2 / RFU, GMCL1 /// GMCL1P1 / Fold change vs veh, GMCL1 /// GMCL1P1 / RFU, AEBP2 / Fold change vs veh, AEBP2 / RFU, SNHG1 /// SNORD22 /// SNORD25 /// SNORD26 /// SNORD27 /// SNORD28 /// SNORD29 /// SNORD31 / Fold change vs veh, SNHG1 /// SNORD22 /// SNORD25 /// SNORD26 /// SNORD27 /// SNORD28 /// SNORD29 /// SNORD31 / Fold change (Aza/veh), C12orf56 (ProbeSet 11735607_a_at) / Fold change (ACY-1035/veh), C12orf56 (ProbeSet 11735607_a_at) / Fold change (Aza/veh), FGFR1OP (ProbeSet 11751329_s_at) / Fold change (ACY-1035/veh), FGFR1OP (ProbeSet 11751329_s_at) / Fold change (Aza/veh), VPS36 (ProbeSet 11739960_a_at) / Fold change (ACY-1035/veh), VPS36 (ProbeSet 11739960_a_at) / RFU SYPL1 (11715823_x_at) / Fold change /veh SYPL1 (11715823_x_at) / RFU IGFBP7 (11715501_s_at) / Fold change /veh IGFBP7 (11715501_s_at) / RFU REEP3 (11722064_at) / Fold change /veh REEP3 (11722064_at) / RFU IGLL1 (11728026_x_at) / Fold change /veh IGLL1 (11728026_x_at): dose or concentration left out as unconfirmed
Conditions: ProbeSet 11729384_s_at; LIST D

For `Nc1ncn([C@@H]2O[C@H](CO)[C@@H](O)[C@H]2O)c(=O)n1` [azacitidine], the “RFU, CCNY” value was 167.26 RFU.
